These are literature values, as cited in patent US20180221332A1, “Flash-Melt Cannabinoid Formulations” (CannTab Therapeutics Limited, priority 2017, published 2018).

The conditions of data set [1]: NICHD/FDA Oral Formulations Platform Report 1; low solubility, unknown permeability.
The conditions of data set [2]: after administration.

For `CCCCCc1cc(O)c2c(c1)OC(C)(C)[C@@H]1CCC(C)=C[C@@H]21` [Dronabinol, (−)-trans-Δ^9-tetrahydrocannabinol], the biopharmaceutics class entry in data set [1] was “class 2 or class 4”. For the same molecule, the “duration of appetite stimulant effect” value in data set [2] was at least 24 h.
